Source: patent US7527935B2, “G-protein coupled receptor having eicosanoid as ligand and gene thereof” (Mitsubishi Tanabe Pharma Corporation, priority 2002, dated 2009)

Test system: neutrophils
Assay: Migration test of neutrophils
Format: cell-based
Conditions: purified human neutrophils; 2 hours
Method: Neutrophils were purified as follows. Blood was collected (50 ml) from healthy male adult volunteers. Then, 12.5 ml each of the collected blood was poured into a 50 ml tube containing 23 ml physiological saline, and, the total volume was adjusted to 40 ml with physiological saline. To a bottom of the tube, Percoll solution (specific gravity: 1.079±0.004, 10 ml) was gently added, and the mixture was centrifuged at 430×g, for 20 minutes at room temperature, without deceleration or acceleration.
After washing the eosinophils and neutrophils purified in the above sections, the cells were suspended in RPMI1640 supplemented with 0.1% BSA (not containing phenol red) which contains 3 μM Calcein-AM (Dojindo laboratories, fluorescence reagent), so that the cell count became 1×10^6 cells/ml. The suspension was incubated at 37° C. for 30 minutes. The cells were washed twice with the same culture medium, and suspended in the same medium so that the cell count became 1×10^6 cells/ml. […]
After the reaction, the chambers were removed, and to the lower chamber was added 66 μl of 10× lysis buffer (5% Triton X-100 dissolved in PBS, 10% ethanol). […] 200 μl of the cell lysate was transferred to 96 well black plate (237105, Nunc), and fluorescence intensities were measured using a fluorometer (ARVO™ SX, Wallac) with an excitation wavelength of 485 nm and a fluorescence wavelength of 535 nm.

Question: Which migration of neutrophils does the source give for CCCCC/C=C\C/C=C\C/C=C\C=C\C(=O)CCCC(=O)O [5-oxo-ETE, 5-oxo-6E,8Z,11Z,14Z-eicosatetraenoic acid] here?
Answer: has an ability to make these cells migrate
